Laboratory results from patent US5591714A, “Derivatives of A82846” (priority 1994, dated 1997).
In brackets after ≈: the same amount, converted by molar mass.

Key:
[1] = system: Staphylococcus aureus S13E; format: cell-based
Protocol: (§1) The formula I compounds have in vitro and in vivo activity against Gram-positive pathogenic bacteria. The MIC's were determined using a standard agar-dilution assays.

[2] = system: Streptococcus pneumoniae Park 1; format: cell-based
Protocol: as §1

Enterococcus faecium X66 = assay: MIC, standard agar-dilution assay; format: cell-based
Protocol: as §1
^b Formerly Streptococcus faecium X66

Streptococcus pyogenes = assay: In vivo activity, experimentally infected mice (ED50); conditions: Streptococcus pyogenes infection; doses administered subcutaneously to mice 1 and 4 hours postinfection
[3] = system: Enterococcus faecalis 2041; assay: MIC, standard agar-dilution assay; format: cell-based
Protocol: as §1
^c Formerly Streptococcus faecalis 2041

Streptococcus pneumoniae = assay: In vivo activity, experimentally infected mice (ED50); conditions: Streptococcus pneumoniae infection; doses administered subcutaneously to mice 1 and 4 hours postinfection
Staphylococcus aureus = assay: as above; conditions: Staphylococcus aureus infection; doses administered subcutaneously to mice 1 and 4 hours postinfection
[4] = system: Haemophilus influenzae 76; assay: MIC, standard agar-dilution assay; format: cell-based
Protocol: as §1

[5] = system: Klebsiella pneumoniae X26; assay: MIC, standard agar-dilution assay; format: cell-based
Protocol: as §1

[6] = system: Haemophilus influenzae C.L.; assay: MIC, standard agar-dilution assay; format: cell-based
Protocol: as §1

[7] = system: Klebsiella pneumoniae X68; assay: MIC, standard agar-dilution assay; format: cell-based
Protocol: as §1

[8] = system: Staphylococcus epidermidis EPI270; assay: MIC, standard agar-dilution assay; format: cell-based
Protocol: as §1

[9] = system: Staphylococcus epidermidis 222; assay: MIC, standard agar-dilution assay; format: cell-based
Protocol: as §1

[10] = system: Staphylococcus aureus X400; assay: MIC, standard agar-dilution assay; format: cell-based
Protocol: as §1

[11] = system: Klebsiella pneumoniae KAE; assay: MIC, standard agar-dilution assay; format: cell-based
Protocol: as §1

[12] = system: Staphylococcus aureus NRRL X1.1; assay: MIC, standard agar-dilution assay; format: cell-based
Protocol: as §1

[13] = system: Staphylococcus aureus V41; assay: MIC, standard agar-dilution assay; format: cell-based
Protocol: as §1

[14] = system: Streptococcus pyogenes C203; assay: MIC, standard agar-dilution assay; format: cell-based
Protocol: as §1

Escherichia coli N10 = assay: MIC, standard agar-dilution assay; format: cell-based
Protocol: as §1

Escherichia coli EC14 = assay: MIC, standard agar-dilution assay; format: cell-based
Protocol: as §1

Escherichia coli TEM = assay: MIC, standard agar-dilution assay; format: cell-based
Protocol: as §1

SMILES | MIC [1] | MIC [2] | MIC (Enterococcus faecium X66) | ED50 (Streptococcus pyogenes) [mg/kg/2] | MIC [3] | ED50 (Streptococcus pneumoniae) [mg/kg/2] | ED50 (Staphylococcus aureus) [mg/kg/2] | MIC [4] [µg/mL] | MIC [5] [µg/mL] | MIC [6] [µg/mL] | MIC [7] [µg/mL] | MIC [8] [µg/mL] | MIC [9] | MIC [10] | MIC [11] [µg/mL] | MIC [12] | MIC [13] | MIC [14] | MIC (Escherichia coli N10) [µg/mL] | MIC (Escherichia coli EC14) [µg/mL] | also measured
CN[C@H](CC(C)C)C(=O)N[C@H]1C(=O)N[C@@H](CC(N)=O)C(=O)N[C@H]2C(=O)N[C@H]3C(=O)N[C@H](C(=O)N[C@H](C(=O)O)c4cc(O)cc(O)c4-c4cc3ccc4O)[C@H](O[C@H]3C[C@](C)(NCc4ccccc4)[C@@H](O)[C@H](C)O3)c3ccc(cc3)Oc3cc2cc(c3O[C@@H]2O[C@H](CO)[C@@H](O)[C@H](O)[C@H]2O[C@H]2C[C@](C)(NCc3ccccc3)[C@@H](O)[C@H](C)O2)Oc2ccc(cc2Cl)[C@H]1O [Compound 11] | .25 µg/mL (≈ 0.144 µM) | .25 µg/mL (≈ 0.144 µM) | .25 µg/mL (≈ 0.144 µM) | 0.34 | 1 µg/mL (≈ 0.575 µM) | 0.37 | 0.58 | > 128 | > 128 | > 128 | > 128 | 1 (≈ 0.575 µM) | .5 µg/mL (≈ 0.288 µM) | .5 µg/mL (≈ 0.288 µM) | > 128 | .25 µg/mL (≈ 0.144 µM) | .5 µg/mL (≈ 0.288 µM) | .25 µg/mL (≈ 0.144 µM) | – | – | –
CC(C)C[C@H](C(=O)N[C@H]1C(=O)N[C@@H](CC(N)=O)C(=O)N[C@H]2C(=O)N[C@H]3C(=O)N[C@H](C(=O)N[C@H](C(=O)O)c4cc(O)cc(O)c4-c4cc3ccc4O)[C@H](O[C@H]3C[C@](C)(NCc4ccccc4)[C@@H](O)[C@H](C)O3)c3ccc(cc3)Oc3cc2cc(c3O[C@@H]2O[C@H](CO)[C@@H](O)[C@H](O)[C@H]2O[C@H]2C[C@](C)(NCc3ccccc3)[C@@H](O)[C@H](C)O2)Oc2ccc(cc2Cl)[C@H]1O)N(C)Cc1ccccc1 [Compound 12] | 4 µg/mL (≈ 2.19 µM) | 2 µg/mL (≈ 1.09 µM) | 4 µg/mL (≈ 2.19 µM) | – | 8 µg/mL (≈ 4.38 µM) | – | – | > 128 | > 128 | > 128 | > 128 | 8 (≈ 4.38 µM) | 8 µg/mL (≈ 4.38 µM) | 8 µg/mL (≈ 4.38 µM) | > 128 | 8 µg/mL (≈ 4.38 µM) | 8 µg/mL (≈ 4.38 µM) | 2 µg/mL (≈ 1.09 µM) | – | – | –
CNC(CC(C)C)C(=O)NC1C(=O)NC(CC(N)=O)C(=O)NC2C(=O)NC3C(=O)NC(C(=O)NC(C(=O)O)c4cc(O)cc(O)c4-c4cc3ccc4O)C(OC3CC(C)(NCc4ccc(Cl)cc4)C(O)C(C)O3)c3ccc(c(Cl)c3)Oc3cc2cc(c3OC2OC(CO)C(O)C(O)C2OC2CC(C)(NCc3ccc(Cl)cc3)C(O)C(C)O2)Oc2ccc(cc2Cl)C1O (stereo not drawn) [Compound 61] | – | – | – | 0.10 | – | 0.08 | 1.83 | – | – | – | – | – | – | – | – | – | – | – | – | – | –
CNC(CC(C)C)C(=O)NC1C(=O)NC(CC(N)=O)C(=O)NC2C(=O)NC3C(=O)NC(C(=O)NC(C(=O)O)c4cc(O)cc(O)c4-c4cc3ccc4O)C(OC3CC(C)(NCc4cccc(Cl)c4)C(O)C(C)O3)c3ccc(c(Cl)c3)Oc3cc2cc(c3OC2OC(CO)C(O)C(O)C2OC2CC(C)(NCc3cccc(Cl)c3)C(O)C(C)O2)Oc2ccc(cc2Cl)C1O (stereo not drawn) [Compound 65] | – | – | – | 0.15 | – | 0.11 | 1.59 | – | – | – | – | – | – | – | – | – | – | – | – | – | –
CNC(CC(C)C)C(=O)NC1C(=O)NC(CC(N)=O)C(=O)NC2C(=O)NC3C(=O)NC(C(=O)NC(C(=O)O)c4cc(O)cc(O)c4-c4cc3ccc4O)C(OC3CC(C)(NCc4ccc(F)cc4)C(O)C(C)O3)c3ccc(c(Cl)c3)Oc3cc2cc(c3OC2OC(CO)C(O)C(O)C2OC2CC(C)(N)C(O)C(C)O2)Oc2ccc(cc2Cl)C1O (stereo not drawn) [Compound 66] | 1 µg/mL (≈ 0.588 µM) | .25 µg/mL (≈ 0.147 µM) | 1 µg/mL (≈ 0.588 µM) | 0.18 | 1 µg/mL (≈ 0.588 µM) | 0.22 | 0.37 | > 128 | > 128 | > 128 | > 128 | 2 (≈ 1.18 µM) | 1 µg/mL (≈ 0.588 µM) | 1 µg/mL (≈ 0.588 µM) | > 128 | .5 µg/mL (≈ 0.294 µM) | 1 µg/mL (≈ 0.588 µM) | .5 µg/mL (≈ 0.294 µM) | > 128 | > 128 | –
CNC(CC(C)C)C(=O)NC1C(=O)NC(CC(N)=O)C(=O)NC2C(=O)NC3C(=O)NC(C(=O)NC(C(=O)O)c4cc(O)cc(O)c4-c4cc3ccc4O)C(OC3CC(C)(N)C(O)C(C)O3)c3ccc(c(Cl)c3)Oc3cc2cc(c3OC2OC(CO)C(O)C(O)C2OC2CC(C)(NCc3ccc(F)cc3)C(O)C(C)O2)Oc2ccc(cc2Cl)C1O (stereo not drawn) [Compound 67] | 1 µg/mL (≈ 0.588 µM) | .125 µg/mL (≈ 0.0735 µM) | .5 µg/mL (≈ 0.294 µM) | < 0.12 | .5 µg/mL (≈ 0.294 µM) | < 0.12 | 0.33 | > 128 | > 128 | > 128 | > 128 | 2 (≈ 1.18 µM) | .5 µg/mL (≈ 0.294 µM) | 1 µg/mL (≈ 0.588 µM) | > 128 | .5 µg/mL (≈ 0.294 µM) | 1 µg/mL (≈ 0.588 µM) | .25 µg/mL (≈ 0.147 µM) | > 128 | > 128 | –
CNC(CC(C)C)C(=O)NC1C(=O)NC(CC(N)=O)C(=O)NC2C(=O)NC3C(=O)NC(C(=O)NC(C(=O)O)c4cc(O)cc(O)c4-c4cc3ccc4O)C(OC3CC(C)(NCc4ccc(F)cc4)C(O)C(C)O3)c3ccc(c(Cl)c3)Oc3cc2cc(c3OC2OC(CO)C(O)C(O)C2OC2CC(C)(NCc3ccc(F)cc3)C(O)C(C)O2)Oc2ccc(cc2Cl)C1O (stereo not drawn) [Compound 68] | – | – | – | 0.09 | – | 0.12 | 0.80 | – | – | – | – | – | – | – | – | – | – | – | – | – | –
CNC(CC(C)C)C(=O)NC1C(=O)NC(CC(N)=O)C(=O)NC2C(=O)NC3C(=O)NC(C(=O)NC(C(=O)O)c4cc(O)cc(O)c4-c4cc3ccc4O)C(OC3CC(C)(NCc4ccccc4)C(O)C(C)O3)c3ccc(c(Cl)c3)Oc3cc2cc(c3O)Oc2ccc(cc2Cl)C1O (stereo not drawn) [Compound 79] | .25 µg/mL (≈ 0.182 µM) | .25 µg/mL (≈ 0.182 µM) | 1 µg/mL (≈ 0.726 µM) | 0.71 | 1 µg/mL (≈ 0.726 µM) | 0.71 | > 1.0 | > 128 | > 128 | > 128 | > 128 | – | .5 µg/mL (≈ 0.363 µM) | .5 µg/mL (≈ 0.363 µM) | > 128 | .25 µg/mL (≈ 0.182 µM) | .25 µg/mL (≈ 0.182 µM) | .25 µg/mL (≈ 0.182 µM) | > 128 | > 128 | MIC (Escherichia coli TEM): > 128 µg/mL
